Data published in patent EP0171362A1, “Aminoalkyl penem compounds” (priority 1984, dated 1986).
Converted amounts (≈) assume the structure as drawn.

What was measured:
Assay type in all cases: cell-based
[1] = tested on: Pseudomonas aeruginosa K 799/61; assay: In vitro antibiotic activity (MIC); settings: K799/61, read-out: in vitro MIC
Escherichia coli UB 1005 = assay: In vitro antibiotic activity (MIC); settings: UB1005
Source text: Ueberraschenderweise weisen die erfindungsgemässen Penem-Verbindungen gegenüber strukturverwandten und vorbekannten Penemen eine überlegene Wirksamkeit auf. Dies wird deutlich beim Vergleich der MIC-Daten (minimum inhibitory concentrations, in vitro gemessen) von (5R,6S)-2-[(2R,S)-2-Amino-but-1-yl)-6-[(lR)-1-hydroxyäthyl]-2-penem-3-carbonsäure (Verbindung A) mit bekannten homologen Penemen, die in Position 2 des Penem-Ringes einen 4-Aminobutyl- bzw. 1-Aminobutyl-Substituenten tragen, nämlich (5R,6S)-2-(4-Aminobutyl)-6-hydroxymethyl-2-penem-3-carbonsäure (Europäische Patentanmeldung Nr. 82113, Verbindung B) und (5R,6S)-2-(1-Aminobutyl)-6-hydroxymethyl-2-penem-3-carbonsäure (Europäische Patentanmeldung Nr. 125 208, Verbindung C). Die Ergebnisse sind in der folgenden Tabelle 1 zusammengefasst.

Escherichia coli 16 = assay: In vitro antibiotic activity (MIC)
Escherichia coli 205 = assay: In vitro antibiotic activity (MIC)
[2] = tested on: Neisseria meningitidis 1316; assay: In vitro antibiotic activity (MIC)
[3] = tested on: Staphylococcus aureus Wood 46; assay: In vitro antibiotic activity (MIC); settings: WOOD46
[4] = tested on: Streptococcus pyogenes Aronson 1129; assay: In vitro antibiotic activity (MIC); settings: ARONSON1129
[5] = tested on: Enterobacter cloacae ATCC 13074; assay: In vitro antibiotic activity (MIC); settings: ATCC13074
[6] = tested on: Klebsiella pneumoniae 327; assay: In vitro antibiotic activity (MIC)
Proteus morganii 2359 = assay: In vitro antibiotic activity (MIC); settings: Morganella morganii
Escherichia coli B-1385 = assay: In vitro antibiotic activity (MIC); settings: B1385
Proteus mirabilis 774 = assay: In vitro antibiotic activity (MIC)
Serratia marcescens 344 = assay: In vitro antibiotic activity (MIC)
[7] = tested on: Pseudomonas aeruginosa ATCC 12055; assay: In vitro antibiotic activity (MIC); settings: ATCC12055
[8] = tested on: Bacteroides fragilis L 01; assay: In vitro antibiotic activity (MIC); settings: L01
[9] = tested on: Escherichia coli 205 R + TEM; assay: In vitro antibiotic activity (MIC); settings: read-out: in vitro MIC
[10] = tested on: Staphylococcus aureus 2999i+p+; assay: In vitro antibiotic activity (MIC)
[11] = tested on: Streptococcus pneumoniae III/84; assay: In vitro antibiotic activity (MIC)
[12] = tested on: Haemophilus influenzae 24; assay: In vitro antibiotic activity (MIC)
[13] = tested on: Clostridium perfringens 194 AN; assay: microbe, parasite or virus in culture; settings: read-out: in vitro MIC
[14] = tested on: Neisseria gonorrhoeae 1317/4; assay: In vitro antibiotic activity (MIC)
[15] = tested on: Enterobacter cloacae P 99; assay: In vitro antibiotic activity (MIC); settings: P99, read-out: in vitro MIC
Escherichia coli 2018 = assay: In vitro antibiotic activity (MIC)
Escherichia coli DC 2 = assay: In vitro antibiotic activity (MIC); settings: DC2
[16] = tested on: Staphylococcus aureus 10 B; assay: In vitro antibiotic activity (MIC)
[17] = tested on: Pseudomonas aeruginosa 143738R; assay: In vitro antibiotic activity (MIC)
[18] = tested on: Staphylococcus aureus A 124; assay: In vitro antibiotic activity (MIC); settings: A124

SMILES | MIC [1] | MIC (Escherichia coli UB 1005) | MIC (Escherichia coli 16) | MIC (Escherichia coli 205) | MIC [2] | MIC [4] | MIC [5] | MIC [6] | MIC (Proteus morganii 2359) | MIC (Proteus mirabilis 774) | MIC (Serratia marcescens 344) | MIC [7] | MIC [8] | MIC [9] | MIC [10] | MIC [11] | MIC [13] | MIC [15] | MIC (Escherichia coli DC 2) | MIC [16] | also measured
CCC(N)CC1=C(C(=O)O)N2C(=O)[C@H]([C@@H](C)O)[C@H]2S1 (stereo partly drawn) [Verbindung A, (5R,6S)-2-[(2R,S)-2-Amino-but-1-yl)-6-[(lR)-1-hydroxyäthyl]-2-penem-3-carbonsäure] | 4 µg/mL (≈ 14 µM) | 2 µg/mL (≈ 6.98 µM) | 1 µg/mL (≈ 3.49 µM) | 1 µg/mL (≈ 3.49 µM) | 1 µg/mL (≈ 3.49 µM) | 0.05 µg/mL (≈ 0.175 µM) | 2 µg/mL (≈ 6.98 µM) | 1 µg/mL (≈ 3.49 µM) | 8 µg/mL (≈ 27.9 µM) | 2 µg/mL (≈ 6.98 µM) | 8 µg/mL (≈ 27.9 µM) | 32 µg/mL (≈ 112 µM) | 0.5 µg/mL (≈ 1.75 µM) | 2 µg/mL (≈ 6.98 µM) | 0.05 µg/mL (≈ 0.175 µM) | 0.05 µg/mL (≈ 0.175 µM) | 0.2 µg/mL (≈ 0.698 µM) | 0.5 µg/mL (≈ 1.75 µM) | 16 µg/mL (≈ 55.9 µM) | 0.02 µg/mL (≈ 0.0698 µM) | MIC [3]: 0.02 µg/mL (≈ 0.0698 µM); MIC (Escherichia coli B-1385): 1 µg/mL (≈ 3.49 µM); MIC [12]: 16 µg/mL (≈ 55.9 µM); MIC [14]: 0.5 µg/mL (≈ 1.75 µM); MIC (Escherichia coli 2018): 0.5 µg/mL (≈ 1.75 µM); MIC [17]: 64 µg/mL (≈ 224 µM); MIC [18]: 0.1 µg/mL (≈ 0.349 µM)
NCCCCC1=C(C(=O)O)N2C(=O)[C@H](CO)[C@H]2S1 [Verbindung B, (5R,6S)-2-(4-Aminobutyl)-6-hydroxymethyl-2-penem-3-carbonsäure] | 4 µg/mL (≈ 14.7 µM) | 4 µg/mL (≈ 14.7 µM) | 4 µg/mL (≈ 14.7 µM) | 4 µg/mL (≈ 14.7 µM) |  | 0.5 µg/mL (≈ 1.84 µM) | 16 µg/mL (≈ 58.8 µM) | 4 µg/mL (≈ 14.7 µM) | 16 µg/mL (≈ 58.8 µM) | 16 µg/mL (≈ 58.8 µM) | 16 µg/mL (≈ 58.8 µM) | 8 µg/mL (≈ 29.4 µM) | 0.5 µg/mL (≈ 1.84 µM) | 8 µg/mL (≈ 29.4 µM) | 0.5 µg/mL (≈ 1.84 µM) | 0.5 µg/mL (≈ 1.84 µM) | 4 µg/mL (≈ 14.7 µM) | 4 µg/mL (≈ 14.7 µM) | 8 µg/mL (≈ 29.4 µM) | 0.5 µg/mL (≈ 1.84 µM) | 
CCCC(N)C1=C(C(=O)O)N2C(=O)[C@H](CO)[C@H]2S1 (stereo partly drawn) [Verbindung C, (5R,6S)-2-(1-Aminobutyl)-6-hydroxymethyl-2-penem-3-carbonsäure] | 64 µg/mL (≈ 235 µM) | 64 µg/mL (≈ 235 µM) | 64 µg/mL (≈ 235 µM) | 64 µg/mL (≈ 235 µM) | 1 µg/mL (≈ 3.67 µM) | 1 µg/mL (≈ 3.67 µM) | > 64 µg/mL | 32 µg/mL (≈ 118 µM) | > 64 µg/mL | > 64 µg/mL | > 64 µg/mL | > 64 µg/mL | 16 µg/mL (≈ 58.8 µM) | 64 µg/mL (≈ 235 µM) | 0.05 µg/mL (≈ 0.184 µM) | 0.05 µg/mL (≈ 0.184 µM) | 64 µg/mL (≈ 235 µM) | 64 µg/mL (≈ 235 µM) | 64 µg/mL (≈ 235 µM) | 0.05 µg/mL (≈ 0.184 µM) | MIC [3]: 0.05 µg/mL (≈ 0.184 µM); MIC (Escherichia coli B-1385): 64 µg/mL (≈ 235 µM); MIC [12]: 32 µg/mL (≈ 118 µM); MIC [14]: 2 µg/mL (≈ 7.34 µM); MIC (Escherichia coli 2018): 32 µg/mL (≈ 118 µM); MIC [17]: > 64 µg/mL; MIC [18]: 0.5 µg/mL (≈ 1.84 µM)
